Assay results from ChEMBL document CHEMBL1201862, “PubChem BioAssay data set” (2004).
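Protocol summary: plate cells (96-well), add compound at 5 concentrations, incubate 48 h, interpolate endpoints linearly. GI50 is the concentration that inhibits growth by half.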 Activity calls are given as the source filed them. No stated cut-off is given here; in the data, active = GI50 up to about 1.1 µM and inactive = higher.

Key:
Experiment in all cases: NCI anticancer screen, dose series, 48 h
[1] = system: PC-3
[2] = system: HT-29
[3] = system: CAKI-1
[4] = system: UACC-62
[5] = system: RPMI-8226
[6] = system: SK-MEL-2
[7] = system: UO-31
[8] = system: SR
[9] = system: SF-539
[10] = system: BT-549
[11] = system: A549
[12] = system: U-251
[13] = system: DU-145
[14] = system: MOLT-4
[15] = system: Hs-578T
[16] = system: HOP-62
[17] = system: OVCAR-8
[18] = system: SF-268
[19] = system: SK-OV-3
[20] = system: SNB-19
[21] = system: 786-0
[22] = system: NCI-H460
[23] = system: HCT-15
[24] = system: NCI/ADR-RES
[25] = system: HCC 2998
[26] = system: SW-620
[27] = system: ACHN
[28] = system: SF-295
[29] = system: K562
[30] = system: RXF 393
[31] = system: SN12C
[32] = system: IGROV-1
[33] = system: MDA-MB-435
[34] = system: NCI-H226
[35] = system: SK-MEL-5
[36] = system: NCI-H23
[37] = system: SNB-75
[38] = system: HOP-92
[39] = system: KM12
[40] = system: OVCAR-5
[41] = system: SK-MEL-28
[42] = system: MDA-N
[43] = system: UACC-257
[44] = system: COLO 205
[45] = system: M14
[46] = system: EKVX
[47] = system: MDA-MB-231
[48] = system: HCT-116
[49] = system: MCF7
[50] = system: OVCAR-4
[51] = system: CCRF-CEM
[52] = system: OVCAR-3
[53] = system: NCI-H522
[54] = system: T47D
[55] = system: Malme-3M
[56] = system: LOX IMVI
[57] = system: A498
[58] = system: TK-10

C/C(=N\Nc1nc2ccccc2s1)c1cccnn1
GI50 [1]: 1.79 µM (inactive)
GI50 [2]: 3.24 µM (inactive)
GI50 [3]: 1.04 µM (active)
GI50 [4]: 2.7 µM (inactive)
GI50 [5]: 1.4 µM (inactive)
GI50 [6]: 3.05 µM (inactive)
GI50 [7]: 1.24 µM (inactive)
GI50 [8]: 0.476 µM (active)
GI50 [9]: 3.55 µM (inactive)
GI50 [10]: 5.32 µM (inactive)
GI50 [11]: 2.23 µM (inactive)
GI50 [12]: 3.68 µM (inactive)
GI50 [13]: 1.92 µM (inactive)
GI50 [14]: 3.91 µM (inactive)
GI50 [15]: 12.1 µM (inactive)
GI50 [16]: 1.63 µM (inactive)
GI50 [17]: 1.66 µM (inactive)
GI50 [18]: 1.56 µM (inactive)
GI50 [19]: 4.29 µM (inactive)
GI50 [20]: 8.2 µM (inactive)
GI50 [21]: 1.26 µM (inactive)
GI50 [22]: 2.65 µM (inactive)
GI50 [23]: 0.333 µM
GI50 [24]: 2.31 µM (inactive)
GI50 [25]: 13.2 µM (inactive)
GI50 [26]: 3.69 µM (inactive)
GI50 [27]: 0.718 µM (active)
GI50 [28]: 2.31 µM (inactive)
GI50 [29]: 3.23 µM (inactive)
GI50 [30]: 17.1 µM (inactive)
GI50 [31]: 2.42 µM (inactive)
GI50 [32]: 0.581 µM (active)
GI50 [33]: 4.26 µM (inactive)
GI50 [34]: 2.75 µM (inactive)
GI50 [35]: 1.31 µM (inactive)
GI50 [36]: 2.61 µM (inactive)
GI50 [37]: 5.5 µM (inactive)
GI50 [38]: 2.32 µM (inactive)
GI50 [39]: 2.77 µM (inactive)
GI50 [40]: 4.02 µM (inactive)
GI50 [41]: 4.56 µM (inactive)
GI50 [42]: 8.63 µM (inactive)
GI50 [43]: 2.48 µM (inactive)
GI50 [44]: 2.48 µM (inactive)
GI50 [45]: 3.05 µM (inactive)
GI50 [46]: 0.753 µM (active)
GI50 [47]: 2.28 µM (inactive)
GI50 [48]: 2.05 µM (inactive)
GI50 [49]: 2.75 µM (inactive)
GI50 [50]: 76 µM (inactive)
GI50 [51]: 0.381 µM (active)
GI50 [52]: 0.406 µM (active)
GI50 [53]: 1.72 µM (inactive)

CCOC(=O)c1sc2nc(SC)nc3c2c1NCN3c1ccccc1Cl
GI50 [1]: 29.4 µM (inactive)
GI50 [2]: 72.1 µM (inactive)
GI50 [3]: 50.8 µM (inactive)
GI50 [54]: 23.7 µM (inactive)
GI50 [4]: 37.4 µM (inactive)
GI50 [5]: > 100 µM (inactive)
GI50 [6]: 97.3 µM (inactive)
GI50 [55]: 31.8 µM (inactive)
GI50 [7]: 70.5 µM (inactive)
GI50 [10]: 42.7 µM (inactive)
GI50 [11]: 38.7 µM (inactive)
GI50 [12]: 43.8 µM (inactive)
GI50 [13]: 75.3 µM (inactive)
GI50 [14]: > 100 µM (inactive)
GI50 [15]: 35.4 µM (inactive)
GI50 [16]: 40.9 µM (inactive)
GI50 [17]: 31.7 µM (inactive)
GI50 [18]: 38.7 µM (inactive)
GI50 [19]: 56.6 µM (inactive)
GI50 [20]: 48.3 µM (inactive)
GI50 [21]: 24.3 µM (inactive)
GI50 [22]: 30.7 µM (inactive)
GI50 [23]: 71.1 µM
GI50 [24]: 40.2 µM (inactive)
GI50 [25]: 56.5 µM (inactive)
GI50 [26]: 80.2 µM (inactive)
GI50 [27]: 55.1 µM (inactive)
GI50 [28]: 52.6 µM (inactive)
GI50 [29]: > 100 µM (inactive)
GI50 [30]: 19.3 µM (inactive)
GI50 [31]: > 100 µM (inactive)
GI50 [32]: 63 µM (inactive)
GI50 [33]: > 100 µM (inactive)
GI50 [34]: > 100 µM (inactive)
GI50 [35]: 31.5 µM (inactive)
GI50 [36]: 42.2 µM (inactive)
GI50 [56]: 35.6 µM (inactive)
GI50 [37]: 24.8 µM (inactive)
GI50 [38]: 25.3 µM (inactive)
GI50 [39]: > 100 µM (inactive)
GI50 [40]: > 100 µM (inactive)
GI50 [41]: 55.2 µM (inactive)
GI50 [42]: 71.4 µM (inactive)
GI50 [43]: 48.8 µM (inactive)
GI50 [44]: > 100 µM (inactive)
GI50 [57]: 37.8 µM (inactive)
GI50 [45]: > 100 µM (inactive)
GI50 [47]: 76.4 µM (inactive)
GI50 [58]: 37.8 µM (inactive)
GI50 [48]: 31.8 µM (inactive)
GI50 [50]: 38.5 µM (inactive)
GI50 [51]: > 100 µM (inactive)
GI50 [52]: 84.5 µM (inactive)
GI50 [53]: 26.5 µM (inactive)
